Our source for the MIC values is DBAASP.

Among the test systems are Klebsiella pneumoniae; Staphylococcus aureus; Salmonella typhimurium; Escherichia coli; Bacillus subtilis; Pseudomonas aeruginosa; Bacillus cereus.
Holding throughout (assay): ≥ marks a high value that may be exact or a test limit, other limits are often not marked, values filed in µg/mL are converted to µM
Assay [1] concerns Pseudomonas aeruginosa ATCC 27853.
In assay [2] the test system is Escherichia coli ATCC 25922.
The subject of assay [3] is Staphylococcus epidermidis ATCC 12228.
In assay [4] the test system is Staphylococcus aureus ATCC 25923.
The subject of assay [5] is Klebsiella pneumoniae ATCC 700603.
Assay [6] has as its system Bacillus subtilis ATCC 6633.
The test system of assay [7] is Candida albicans ATCC 90028.
Assay [8] relates to Staphylococcus aureus NCTC 8325.
In assay [9] the test system is Salmonella enterica subsp. enterica serovar Typhimurium ATCC 14028.
Assay [10] deals with Candida albicans ATCC 10231.
Assay [11] has as its system Klebsiella pneumoniae ATCC 13883.
The subject of assay [12] is Staphylococcus aureus ATCC 43300.
Assay [13] deals with Enterococcus faecalis ATCC 29212.
The subject of assay [14] is Staphylococcus epidermidis.
Assay [15] concerns Escherichia coli DH5alpha.

Converted amounts (≈) assume the structure as drawn.

Broadly, the MIC is the lowest concentration that inhibits growth of the organism. Read a high MIC as a need for much substance. As for `CC(=O)N[C@@H](Cc1ccccc1)C(=O)N[C@@H](CCCCN)C(=O)N[C@@H](CCCCN)C(=O)N[C@@H](CC(C)C)C(=O)N[C@@H](CCCCN)C(=O)N[C@@H](CCCCN)C(=O)N[C@@H](CC(C)C)C(=O)N[C@@H](Cc1ccccc1)C(=O)N[C@@H](CO)C(=O)N[C@@H](CCCCN)C(=O)N[C@@H](CC(C)C)C(=O)N[C@@H](CCCCN)C(=O)N[C@@H](CC(N)=O)C(=O)N[C@@H](Cc1c[nH]c2ccccc12)C(=O)N[C@@H](Cc1c[nH]c2ccccc12)C(N)=O` [FKKLKKLFSKLKNWW], the MIC was 3.2 µM (≈ 6.51 µg/mL) in assay [1]; 1.6 µM (≈ 3.26 µg/mL) in assay [2]; 1.6 µM (≈ 3.26 µg/mL) in assay [3]; 3.2 µM (≈ 6.51 µg/mL) in assay [4]; 3.2 µM (≈ 6.51 µg/mL) in [5]; 1.6 µM (≈ 3.26 µg/mL) in assay [6].

Take `CC[C@H](C)[C@@H]1NC(=O)[C@H](C)NC(=O)[C@@H](NC(=O)[C@H](Cc2ccccc2)NC(=O)[C@@H](NC(=O)[C@H](CCCCN)NC(=O)[C@@H]2CCCN2C(=O)[C@H](Cc2ccccc2)NC(=O)[C@@H](NC(=O)[C@H](CCCCN)NC(=O)[C@H](C)NC(=O)[C@H](C)NC(=O)[C@@H](NC(=O)CNC(=O)[C@H](C)NC(=O)[C@@H](NC(=O)[C@@H](NC(=O)[C@@H]2CCCN2C(=O)[C@H](CC(C)C)NC(=O)[C@@H](N)Cc2ccccc2)[C@@H](C)CC)[C@@H](C)CC)C(C)C)C(C)C)[C@@H](C)CC)CSSC[C@@H](C(=O)O)NC(=O)[C@H](CCCCN)NC(=O)[C@H](CCCCN)NC(=O)[C@H](CO)NC1=O` [FLPIIAGVAAKVFPKIFCAISKKC]: the values for the MIC in assay [2], in assay [7] and in assay [8] were 14 µM (≈ 35.9 µg/mL), 5 µM (≈ 12.8 µg/mL) and 7 µM (≈ 17.9 µg/mL), respectively.

With `CC[C@H](C)[C@H](NC(=O)[C@H](CC(C)C)NC(=O)[C@H](CC(=O)O)NC(=O)[C@H](CO)NC(=O)[C@@H](NC(=O)[C@H](C)NC(=O)[C@H](CCCCN)NC(=O)[C@@H](NC(=O)[C@H](C)NC(=O)[C@H](Cc1cnc[nH]1)NC(=O)[C@@H]1CCCN1C(=O)[C@@H](NC(=O)[C@H](CC(C)C)NC(=O)[C@@H]1CCCN1C(=O)CNC(=O)[C@@H](NC(=O)[C@H](Cc1ccc(O)cc1)NC(=O)[C@H](CCCCN)NC(=O)[C@H](CCSC)NC(=O)[C@H](Cc1ccccc1)NC(=O)CN)[C@@H](C)CC)[C@@H](C)CC)C(C)C)[C@@H](C)CC)C(=O)O` [GFMKYIGPLIPHAVKAISDLI], the values for the MIC in [2], in assay [7] and in assay [8] were 25 µM (≈ 57.1 µg/mL), not below 200 µM and not below 100 µM, respectively.

Turning to `CC[C@H](C)[C@H](NC(=O)[C@H](CC(C)C)NC(=O)[C@H](CC(=O)O)NC(=O)[C@H](CO)NC(=O)[C@@H](NC(=O)[C@H](C)NC(=O)[C@H](CCCCN)NC(=O)[C@@H](NC(=O)[C@H](CCCCN)NC(=O)[C@H](Cc1cnc[nH]1)NC(=O)[C@@H]1CCCN1C(=O)[C@@H](NC(=O)[C@H](CC(C)C)NC(=O)[C@@H]1CCCN1C(=O)CNC(=O)[C@@H](NC(=O)[C@H](Cc1ccc(O)cc1)NC(=O)[C@H](CCCCN)NC(=O)[C@H](CCSC)NC(=O)[C@H](Cc1ccccc1)NC(=O)CN)[C@@H](C)CC)[C@@H](C)CC)C(C)C)[C@@H](C)CC)C(N)=O` [GFMKYIGPLIPHKVKAISDLI], the MIC in [2] was 100 µM (≈ 234 µg/mL); in assay [7], not below 200 µM; in assay [8], not below 200 µM.

For the compound `CC[C@H](C)[C@H](NC(=O)[C@H](CC(C)C)NC(=O)[C@H](CCCCN)NC(=O)[C@H](CO)NC(=O)[C@@H](NC(=O)[C@H](C)NC(=O)[C@H](CCCCN)NC(=O)[C@@H](NC(=O)[C@H](C)NC(=O)[C@H](Cc1cnc[nH]1)NC(=O)[C@@H]1CCCN1C(=O)[C@@H](NC(=O)[C@H](CC(C)C)NC(=O)[C@@H]1CCCN1C(=O)[C@H](CCCCN)NC(=O)[C@@H](NC(=O)[C@H](Cc1ccc(O)cc1)NC(=O)[C@H](CCCCN)NC(=O)[C@H](CCSC)NC(=O)[C@H](Cc1ccccc1)NC(=O)CN)[C@@H](C)CC)[C@@H](C)CC)C(C)C)[C@@H](C)CC)C(=O)O` [GFMKYIKPLIPHAVKAISKLI], the MIC in assay [2] was 12.5 µM (≈ 29.6 µg/mL); in assay [7], not below 50 µM; in [8], 25 µM (≈ 59.2 µg/mL).

Turning to `CC[C@H](C)[C@H](NC(=O)[C@H](Cc1ccc(O)cc1)NC(=O)[C@@H](NC(=O)[C@@H]1CCCN1C(=O)[C@H](CCCN=C(N)N)NC(=O)[C@H](CC(N)=O)NC(=O)[C@H](CC(N)=O)NC(=O)CN)C(C)C)C(=O)N1CCC[C@H]1C(=O)N[C@@H](CCC(N)=O)C(=O)N1CCC[C@H]1C(=O)N[C@@H](CCCN=C(N)N)C(=O)N1CCC[C@H]1C(=O)N[C@@H](Cc1cnc[nH]1)C(=O)N1CCC[C@H]1C(=O)N[C@@H](CCCN=C(N)N)C(=O)N[C@@H](CC(C)C)C(=O)O` [GNNRPVYIPQPRPHPRL], the MIC is 128 µM (≈ 257 µg/mL) in assay [2], more than 128 µM with Klebsiella pneumoniae and more than 128 µM in assay [9].

With `CC(C)[C@H](NC(=O)CNC(=O)[C@H](CCCN=C(N)N)NC(=O)[C@@H](NC(=O)[C@@H](NC(=O)[C@@H](NC(=O)[C@H](CCCN=C(N)N)NC(=O)CNC(=O)[C@@H](NC(=O)[C@H](CCCN=C(N)N)NC(=O)[C@@H](NC(=O)[C@@H](NC(=O)[C@@H](NC(=O)CN)C(C)C)C(C)C)C(C)C)C(C)C)C(C)C)C(C)C)C(C)C)C(=O)N[C@@H](CCCN=C(N)N)C(=O)N[C@@H](CCCN=C(N)N)C(N)=O` [GVVVRVGRVVVRGVRR], the MIC amounted to 16 µM (≈ 28.2 µg/mL) with Staphylococcus aureus, 8 µM (≈ 14.1 µg/mL) in the assay on Salmonella typhimurium, 8 µM (≈ 14.1 µg/mL) against Escherichia coli and 8 µM (≈ 14.1 µg/mL) in the assay with Bacillus subtilis.

Take `CC(C)[C@H](NC(=O)CNC(=O)[C@@H](N)Cc1cnc[nH]1)C(=O)N[C@@H](CO)C(=O)NCC(=O)N[C@@H](Cc1cnc[nH]1)C(=O)NCC(=O)N[C@@H](CCC(N)=O)C(=O)N[C@@H](Cc1cnc[nH]1)C(=O)NCC(=O)N[C@H](C(=O)N[C@@H](Cc1cnc[nH]1)C(=O)NCC(=O)O)C(C)C` [HGVSGHGQHGVHG]: the MIC is 50.6 µM (≈ 64 µg/mL) against Staphylococcus aureus; more than 101 µM in assay [10]; 12.6 µM (≈ 16 µg/mL) in assay [11]; 12.6 µM (≈ 16 µg/mL) in the assay on Klebsiella pneumoniae; 12.6 µM (≈ 16 µg/mL) in assay [4]; 12.6 µM (≈ 16 µg/mL) against Escherichia coli. In addition, the MIC in [12] was more than 101 µM; with Pseudomonas aeruginosa it was 25.3 µM (≈ 32 µg/mL); in assay [13], more than 101 µM; in assay [14] it was 25.3 µM (≈ 32 µg/mL).

On to `CC[C@H](C)[C@H](NC(=O)CNC(=O)[C@H](CCCN=C(N)N)NC(=O)[C@H](C)NC(=O)[C@H](CCSC)NC(=O)[C@@H]1CCCN1C(=O)[C@H](C)NC(=O)CNC(=O)[C@H](CCC(=O)O)NC(=O)[C@H](CC(C)C)NC(=O)[C@@H]1CCCN1C(=O)[C@H](CC(=O)O)NC(=O)[C@H](Cc1ccccc1)NC(=O)[C@@H](N)CCCCN)C(=O)N[C@H](C(=O)N[C@@H](CC(C)C)C(=O)N[C@@H](CCC(=O)O)C(=O)N[C@@H](CCCCN)C(=O)N[C@H](C(=O)NCC(=O)O)C(C)C)C(C)C` [KFDPLEGAPMARGIVLEKVG], for which the MIC in the assay on Bacillus cereus is not below 120 µM; in the assay with Escherichia coli, more than 120 µM.

In the case of `CC[C@H](C)[C@H](NC(=O)[C@H](CCCCN)NC(=O)[C@H](CCCCN)NC(=O)[C@H](C)NC(=O)[C@H](CC(C)C)NC(=O)[C@H](CC(N)=O)NC(=O)[C@@H](NC(=O)[C@H](CC(C)C)NC(=O)[C@@H](NC(=O)CNC(=O)[C@H](CC(C)C)NC(=O)[C@H](Cc1ccccc1)NC(=O)[C@@H](N)CC(N)=O)[C@@H](C)O)[C@@H](C)CC)C(=O)N[C@@H](CCSC)C(N)=O` [NFLGTLINLAKKIM], the values for the MIC in assay [2], in assay [7] and in [8] were more than 150 µM, not below 150 µM and not below 48 µM, respectively.

Turning to `CC[C@H](C)[C@H](NC(=O)[C@H](Cc1ccccc1)NC(=O)[C@@H](NC(=O)[C@H](CC(C)C)NC(=O)[C@H](CCCN=C(N)N)NC(=O)[C@H](CCCCN)NC(=O)[C@H](CCCN=C(N)N)NC(=O)[C@H](CCCCN)NC(=O)[C@H](CC(C)C)NC(=O)[C@H](CC(C)C)NC(=O)[C@@H](NC(=O)[C@@H](N)Cc1ccc(O)cc1)C(C)C)[C@@H](C)CC)C(=O)O` [YVLLKRKRLIFI], the MIC in assay [1] was more than 200 µM; in assay [15], not below 50 µM; in [4], more than 200 µM; in the assay on Bacillus subtilis, not below 200 µM.
